Laboratory results from US7205383B2, “Peptide ligands of leukocyte integrins” (Karyon-CTT Ltd., priority 2001, dated 2007).
Ends that are not written are not given here.

What was measured:
αM subunit I-domain = biological target: T1, αM subunit I-domain (Homo sapiens, UniProt P11215); test: I-domain binding assay; conditions: for binding to isolated I-domain of the αM subunit: 0.01–100 μg/ml, 60 min; for inhibition of LLG-C4-GST binding to the I-domain: LLG-C4-GST 10 μg/ml, peptides 100 μM, EDTA 2.5 mM
T1 construct: GST (cleaved yes); made in house; host or cells: E. coli
Method: In FIG. 1(B), LLG-C4-GST or GST was incubated for 60 min in microtiter wells coated with purified αM subunit I-domain. The concentrations of GST proteins were as indicated. After washing, the bound GST was determined with anti-GST antibodies. The results are means ±SD from triplicate wells. The results were similar in two other experiments.
After a 60 min incubation, the wells were washed and the binding was determined with anti-GST antibodies. The results are the means ±SD from triplicate wells.
(§1) Integrin was immunocaptured on microtiter wells that were coated with the αM subunit antibodies OKM1 or MEM170, the αx subunit antibody TS2/4 or non-specific IgG (Dako, Carpinteria, Calif.). The antibodies were coated at a concentration of 10 μg/ml in TBS overnight at 4° C. After saturation of the wells with 5% BSA, a 200 μl aliquot of the buffy coat lysate in 1% octylglucoside/1 mM MnCl2/TBS was allowed to incubate for 2 h at 4° C. The wells were then washed five times with the octylglucoside-containing buffer. LLG-C4-GST or control GST was incubated at a concentration of 10 μg/ml in 25 mM octylglucoside TBS/1 mM MnCl2 for an hour. Following washing of the wells, the bound GST was determined with anti-GST antibodies (Amersham Pharmacia), which were labeled with an Eu^3+-chelate according to the instructions of the manufacturer (Wallac, Turku, Finland). The Eu^3+-fluorescence was measured with a 1230 Arcus fluorometer (Wallac). For examination of the I-domain binding, we used the recombinant αM I-domain expressed as a GST fusion protein in E. coli as described (Ueda et al., 1994). […] The I-domain was coated on microtiter wells at a concentration of 20 μg/ml, and the binding of LLG-C4-GST and GST was studied.

αMβ2 integrin = biological target: T2, αMβ2 integrin (Homo sapiens, UniProt P11215); test: Integrin binding assay, immunocaptured integrin (MEM170 or OKM1); conditions: for binding of GST protein to immunocaptured αMβ2 integrin: 10 μg/ml, 1 mM MnCl2, integrin captured with MEM170 or OKM1, anti-GST detection
T2 construct: integrin from a blood cell lysate was immunocaptured on microtiter wells; from tissue; host or cells: blood buffy coat lysate in octylglucoside
Method: Purified LLG-C4-GST or GST control (2 μg/well) was allowed to bind for 60 min in the absence or presence of EDTA. After washing, the bound GST protein was determined by using anti-GST antibodies. […] The experiment was repeated three times with similar results.
as §1

αMβ2 integrin (Mac-1) = biological target: T3, αMβ2 integrin (Mac-1) (Homo sapiens, UniProt P11215); test: Phage display biopanning on purified integrin; assay type: binding; conditions: phage bound to αMβ2 integrin, CX7C and CX9C libraries, randomly selected clones
T3 construct: from tissue; host or cells: blood buffy coats (leukocytes)
Method: The αMβ2 integrin was purified by antibody affinity chromatography from buffy coats obtained from Finnish Red Cross Blood Transfusion Service as described previously (Li et al., 1995). Integrin diluted in Tris-buffered saline (TBS)/1 mM MnCl2 was coated onto microtiter wells overnight at 4° C. using one μg per well in the first biopanning and 100, 10 and 1 ng in subsequent pannings. The wells were blocked with 5% BSA in TBS for 1 h at 22° C. and then washed five times with TBS. Biopanning was performed using CX7C and CX9C phage peptide libraries essentially as described (Koivunen et al., 1994). The construction of libraries was modified so that the single-stranded DNA encoding degenerate sequences was converted into a double-stranded form using 5 cycles of PCR with only the reverse primer and then 11 cycles with both the reverse and forward primer. A total of 6 μg of the double-stranded oligonucleotide was purified using QIAGEN PCR purification kit and ligated with 42 μg of the Fuse5 phage vector. The number of recombinants in the libraries was more than 10^9. Phage binding, elution and subsequent amplification in E. coli were repeated five times, and after each panning bacterial colonies were picked up and stored in a 10 μl volume of TBS in microtiter wells at −20° C. For direct colony sequencing, one μl aliquots of the thawed samples were subjected to PCR with 10 pmol each of the forward primer 5′ […] 3′ (SEQ ID NO: 9) and the reverse primer 5′ […] 3′ (SEQ ID NO: 10). The PCR conditions were 92° C. for 30 s, 60° C. for 30 s, and 72° C. for 60 s, and the cycle number was 35. One μl aliquot of the PCR reaction was taken for sequencing using 15 pmol of either one of the primers and analyzed on an ABI 310 apparatus (PE Applied Biosystems, Foster City, Calif.).
After the fifh round of selection, the CX7C library gave a 600-fold enrichment and CX9C a 1000-fold enrichment of phage bound to the integrin in comparison to background. […] Four of them contained the LLG tripeptide motif. The two sequences most strongly enriched were CPCFLLGCC (SEQ ID NO: 3) (LLG-C4) and […] (SEQ ID NO: 11), each observed 15 times in the randomly selected clones, and these were the only clones remaining after searching for high affinity binders by using low integrin coating concentrations.

THP-1 cells = test: Transwell cell migration assay, LLG-C4-GST-coated filters; assay type: cell-based; conditions: 10% serum, 18 h
Method: The in vitro migration of THP-1 cells was studied in closely physiological conditions containing 10% serum to not interfere with adhesive properties of cells. Both the upper and lower surfaces of 8 μm pore size Transwell filters were coated with fibrinogen, LLG-C4-GST, or GST at a concentration of 40 μg/ml overnight at 4° C. Free binding sites were blocked by incubation with 5% BSA/TBS. THP-1 cells (5×10^4 in 100 μl) were plated on the upper compartment in 10% FCS-containing medium. The C(1–8;3–9) or C(1–9;3–8) peptide were included at a concentration of 200 μM. The lower compartment was filled with 750 μl of 10% FCS-containing medium. Following a culture for 18 h at 37° C. the filters were immersed in methanol for 15 min, in water for 10 s, and in 0.1% toluidine blue for 5 min. The filters were then washed 3–5 times with water until cell staining was clear. Cells were removed from the upper surface of the filter with a cotton swap, and cells migrated on the lower surface were counted microscopically. Student's t-test was used for statistical analysis.

[1] = tested on: THP-1 cells (β2 integrins); conditions: for competition of THP-1 cell adhesion on LLG-C4-GST substratum: soluble pentapeptides, CLLGC at concentrations of 1 mM or higher
Method: In FIG. 2(A), phorbol ester-activated THP-1 cells were allowed to bind for 60 min to microtiter wells coated with LLG-C4-GST, GST, or albumin. EDTA was included at a 2.5 mM concentration. The bound cells were determined by the assay measuring cellular phosphatase activity. The data are the means ±SD from triplicate wells.
In FIG. 2(B), THP-1 cells were mixed with each antibody against the β1, β2, β3, αL, αM, or αX integrin subunit as indicated at a concentration of […]. An aliquot of cells was then transferred to wells coated with LLG-C4-GST and incubated for 60 min at 37° C. Following washing the bound cells were determined by the phosphatase assay. The results are the mean % adhesion ±SD of 2–4 independent experiments each done in triplicate wells.
In FIG. 3(A), TBP-1 cells were mixed in suspension with the peptide containing either the C(1–8;3–9) or C(1–9;3–8) disulfide. The final concentrations of the peptides are indicated. Cells were then incubated for 60 min at 37° C. in microtiter wells coated with LLG-C4-GST. After washing the wells, the bound cells were quantitated by the phosphatase assay. The results are the mean ±SD from triplicate wells.
In FIG. 3(B), THP-1 cell binding to LLG-C4-GST was examined in the presence of the C(1–8;3–9), CLLGC (SEQ ID NO: 4) or the CAAGC (SEQ ID NO: 5) peptide. The synthetic peptides were used at the concentrations indicated. Following a 60 min incubation the wells were washed and the bound cells were determined by the phosphatase assay.
(§2) Fibrinogen, fibronectin, von Wrlnebrand factor, type IV collagen, GST fusion proteins, Fc fusion proteins or synthetic peptides were coated on microtiter wells at a concentration of 2 μg in 50 μl TBS unless otherwise indicated. A recombinant von Willebrand factor and a capturing antibody to it kindly provided by Drs. J. J. Sixma and Ph. G. de Groot (University Medical Center Utrecht, the Netherlands) were also used. To prepare polymerized peptides, glutaraldehyde was added at a final concentration of 0.25%. The wells were saturated with 5% BSA and then washed five times with PBS. Prior to adhesion assays, cells were treated with 50 nM 40-Phorbol 12,13-dibutyrate or with 200 μM P1 peptide (Kotovuori et al., 1999) in serum-free medium for 30 min at room temperature to activate the integrins. Alternatively, cells were stimulated for 60 min at 37° C. with the phorbol ester (50 nM) and the C(1–8;3–9) and RGD-4C peptides each at a 2.5 μM concentration, after which the peptides were removed by washing with PBS/2.5 mM EDTA. Cells were incubated in the microtiter wells (100 000 cells per well) for 60 min at 37° C. in the absence or presence of competing peptides, antibodies or EDTA. Unbound cells were removed by gently washing with PBS and pressing the plate against paper towels. The bound cells were determined by an assay measuring cellular phosphatase activity. Briefly, 100 μl of 50 mM sodium acetate buffer, pH 5.0, containing 1% Triton X-100 and 6 mg/ml p-nitrophenyl phosphate was added per well and incubated for 1 h at 37° C. The reaction was stopped with 50 μl of 1 M NaOH. The absorbance at 405 nm was read on a microplate reader. Alternatively, the attached cells were stained with Crystal Violet essentially as described (Mould et al., 1995).

[2] = tested on: αXβ2 integrin-transfected L cells; test: Adhesion of αXβ2 integrin-transfected L cells to LLG-C4-GST; assay type: cell-based, mouse
Method: as §2, with “Unbound cells were removed by gently washing with PBS and pressing the plate against paper towels.” left out, “Briefly, 100 μl of 50 mM sodium acetate buffer, pH 5.0, containing 1% Triton X-100 and 6 mg/ml p-nitrophenyl phosphate was added per well and incubated for 1 h at 37° C. The reaction was stopped with 50 μl of 1 M NaOH.” left out, “Alternatively, the attached cells were stained with Crystal Violet essentially as described (Mould et al., 1995).” left out

[3] = tested on: L929, K562, SKOV-3, KS6717 and Eahy96 cells; test: Adhesion of non-leukocytic cell lines to immobilized peptide or fusion protein; assay type: cell-based; conditions: cells pretreated with phorbol ester or not; data not shown
Method: as §2, with “Unbound cells were removed by gently washing with PBS and pressing the plate against paper towels.” left out, “Briefly, 100 μl of 50 mM sodium acetate buffer, pH 5.0, containing 1% Triton X-100 and 6 mg/ml p-nitrophenyl phosphate was added per well and incubated for 1 h at 37° C. The reaction was stopped with 50 μl of 1 M NaOH.” left out, “Alternatively, the attached cells were stained with Crystal Violet essentially as described (Mould et al., 1995).” left out

[4] = tested on: THP-1 cells on von Willebrand factor; assay type: cell-based; conditions: 500 μM; data not shown
Method: In FIG. 5(A), THP-1 cell binding to von Wirebrand factor was examined in the presence of antibodies against the β2 (7E4), αvβ3 (LM609) or αIIbβ3 (P2) integrins. Following a 60 min incubation in von Willebrand factor-coated wells, the bound cells were determined. The data are the mean ±SD of triplicate wells. The experiment was repeated three times.
In FIG. 5(B), TRP-1 cells were allowed to bind to microtiter wells coated with von Willebrand factor, type IV collagen, or fibronectin. The C(1–8;3–9) peptide was included as a competitor in the concentrations described. The bound cells were determined by the phosphatase assay. The data are the mean ±SD of triplicate wells and were similar in four other experiments.
as §2, with “Unbound cells were removed by gently washing with PBS and pressing the plate against paper towels.” left out, “Briefly, 100 μl of 50 mM sodium acetate buffer, pH 5.0, containing 1% Triton X-100 and 6 mg/ml p-nitrophenyl phosphate was added per well and incubated for 1 h at 37° C. The reaction was stopped with 50 μl of 1 M NaOH.” left out, “Alternatively, the attached cells were stained with Crystal Violet essentially as described (Mould et al., 1995).” left out

GST: control GST protein was tested, and the “binding to isolated I-domain of the αM subunit” value (αM subunit I-domain) was “did not bind” and the “binding of GST protein to immunocaptured αMβ2 integrin” value (αMβ2 integrin) was “not GST alone”.
In the case of “CPEDLYFFC (Phage sequence bound to the alphaMbeta2 integrin (Mac-1))”, the “number of isolated nucleotide sequences encoding each peptide” value (shortened to “number”) (αMβ2 integrin (Mac-1)) is reported as “(3)”.
With “LLG-C4-GST: LLG-C4 nonapeptide expressed as GST fusion protein in E. coli (CPCFLLGCC-{GST}; cysteine pairing not given here)” the “cell migration on LLG-C4-GST compared with other coatings” value (THP-1 cells) was “more efficient than on fibronectin or fibrinogen coatings”, the “fold more cells migrated on LLG-C4-GST substratum than on control GST substratum” value (THP-1 cells; filter coated at 40 μg/ml) was “Approximately 10 fold” and the “binding to isolated I-domain of the αM subunit” value (αM subunit I-domain) was “concentration-dependent binding”. The “binding of phorbol ester-activated THP-1 cells to coated protein” value ([1]; protein coated on microtiter wells, 60 min) was “efficiently bound”, the “difference in binding of αXβ2-transfected L cells to LLG-C4-GST vs. GST” value ([2]; p=0.016) was “statistically significant” and the “binding of GST protein to immunocaptured αMβ2 integrin” value (αMβ2 integrin) was “bound to the αMβ2 integrin in a divalent cation-sensitive manner”. The “binding of non-leukocytic cell lines not expressing β2 integrins” value [3] was “showed no binding”.
In the case of “LLG-C4 (2): synthetic LLG-C4 preparation, inactive apparently due to disadvantageous disulfide bonding (CPCFLLGCC; disulfide (positions not given here); not fully specified)”, the “inhibition of LLG-C4-GST binding to the I-domain” value (from here on “inhibition … to the I-domain”) (αM subunit I-domain) is reported as “did not inhibit LLG-C4-GST binding to the I-domain”.
In the case of `O=C(O)CN(CCN(CC(=O)O)CC(=O)O)CC(=O)O` [EDTA, reference compound], the “inhibition … to the I-domain” value (αM subunit I-domain) is reported as “blocked the binding”, the “effect of EDTA on THP-1 binding on LLG-C4-GST” value ([1]; EDTA 2.5 mM) is reported as “completely abolished the binding” and the “inhibition of binding of αXβ2-transfected L cells to LLG-C4-GST” value ([2]; competitor) is reported as “inhibited”. For the same molecule, the “inhibition of LLG-C4-GST binding to immunocaptured αMβ2 integrin” value (αMβ2 integrin; EDTA present) was “inhibited the binding of LLG-C4-GST to the integrin”.
With CWKLLGSEEEC (Stronly enriched sequence) the “number” value (αMβ2 integrin (Mac-1)) was “(15)” and the “number” value (αMβ2 integrin (Mac-1); listed as CWKLGSEEEC) was 15.
“CAAGC (Synthetic peptide seen in Fig. 3B) [reference compound]” was tested, and the “competition of THP-1 cell adhesion on LLG-C4-GST substratum” value [1] was “weak competitor of cell adhesion” and the “inhibition of THP-1 binding to von Willebrand factor at 500 μM” value [4] was “not”.
“CWHKDLLGC (Phage sequence bound to the alphaMbeta2 integrin (Mac-1))” was tested, and the “number” value (αMβ2 integrin (Mac-1)) was “(4)”.
In the case of “CLLGC (Synthetic peptide seen in Fig. 3B)”, the “competition of THP-1 cell adhesion on LLG-C4-GST substratum” value [1] is reported as “readily inhibited cell adhesion” and the “inhibition of THP-1 binding to von Willebrand factor at 500 μM” value [4] is reported as “inhibited”.
“CPPDLFWYC (Phage sequence bound to the alphaMbeta2 integrin (Mac-1))” was tested, and the “number” value (αMβ2 integrin (Mac-1)) was “(4)”.
With “LLG-C4 (1): air-oxidised synthetic biscyclic LLG-C4 preparation, highly active (CPCFLLGCC; disulfide (positions not given here))” the “inhibition … to the I-domain” value (αM subunit I-domain) was “blocked the ability of the I-domain to bind the LLG-C4-GST”.
